Laboratory results reported in paper PMC6896172, “Successful Targeting of the Warburg Effect in Prostate Cancer by Glucose-Conjugated 1,4-Naphthoquinones” (Cancers, 2019).

Legend:
PC-3 cells = assay: MTT cytotoxicity assay in PC-3 cells; assay type: cell-based, human
Excerpt: For general experiments human prostate cancer cell lines PC-3 and DU145 (docetaxel-resistant, androgen-independent, AR-FL(−), AR-V7(−)), 22Rv1 and VCaP (docetaxel-sensitive, androgen-independent, AR-FL(+), AR-V7(+), and LNCaP (docetaxel sensitive, androgen-dependent, AR-FL(+), AR-V7(−) were used. PC-3, 22Rv1, LNCaP cells as well as the human prostate non-cancer cells PNT2 and RWPE-1 were purchased from ATCC (Manassas, VA, USA). VCaP were purchased from ECACC (Salisbury, UK). The human fibroblast cell line MRC-9, the human embryonic kidney cell line HEK 293T, as well as the human umbilical vascular endothelial cell line HUVEC were kindly donated by Prof. Dr. Dr. med. Sonja Loges (University Medical Center Hamburg-Eppendorf, Hamburg, Germany). Cells were cultured according to the manufacturers’ instructions and were recently authenticated by a commercial service (Multiplexion, Heidelberg, Germany). Culture conditions are described in the Supplementary Information.
(§1) MTT (3-(4,5-dimethylthiazol-2-yl)-2,5-diphenyltetrazolium bromide) cytotoxicity assay was used for the evaluation of cytotoxicity of the compounds or their combinations. Experiments were performed as previously described. In brief, 6000 cells/well were seeded in 96-well plate, incubated overnight, and treated with the drugs in 100 µL/well of 10% FBS/RPMI media containing 2 g/L of D-(+)-glucose for 48 h, unless otherwise stated. For 2 h treatment the cells were treated with the drugs for 2 h in the culture media, then the media was exchanged to fresh drug-free media (100 µL/well) containing MTT reagent and the further steps were performed as previously described.
Table S4. Cytotoxic activity of the synthesized compounds. Cytotoxicity was determined in human prostate cancer PC-3 cells versus human prostate non-cancer
PNT2 cells after 48 h of treatment, as well as its ratio. IC50 was evaluated using MTT assay. SI–selectivity index. #–the IC50s in both cell lines were >100 µM.
Anisomycin was used as a reference substance.
No Formula IC50(PC-3) IC50(PNT2) SI […]

22Rv1 cells [1] = assay: Western blotting of treated cells; assay type: cell-based, human
Procedure: Preparation of protein extracts for western blotting was performed as described previously. In brief, for western blotting, 1 × 10^6 cells/well were seeded in Petri dishes (ø 6 cm TC Dish (Sarstedt, Numbrecht, Germany) in 5 mL/dish), incubated overnight and treated with drugs in 5 mL/dish for an indicated time. Cells were harvested using a cell scraper, pelleted, and resuspended in the lysis buffer containing protease and phosphatase inhibitors. Further sample preparation and western blotting were performed as previously described with slight modifications. Relative optical density of the detected bands was quantified with Quantity One 4.6 software (Bio-Rad, Hercules, CA, USA). The primary and secondary antibodies used are listed in the Supplementary Information.

RWPE-1 cells = assay: MTT cytotoxicity assay in RWPE-1 cells; assay type: cell-based; settings: Homo sapiens, 48 h of treatment, non-cancer
Procedure: Dr. Dr. med. Sonja Loges (University Medical Center Hamburg-Eppendorf, Hamburg, Germany). Cells were cultured according to the manufacturers’ instructions and were recently authenticated by a commercial service (Multiplexion, Heidelberg, Germany). Culture conditions are described in the Supplementary Information.
as §1

22Rv1 cells [2] = assay: Colony formation assay; assay type: cell-based, human; settings: 22Rv1 cells treated with non-cytotoxic concentrations for 48 h
Procedure: Colony formation assays were performed as described before. In brief, cells were treated with the drugs for 48 h and then 100 alive cells were plated into each well of 6-well plates and incubated for 10 days. Surviving colonies were fixed, stained with Giemsa solution and counted.

SMILES: CC1(C)OC2OC(C(O)COC3=CC(=O)c4cccc(O)c4C3=O)C(O)C2O1 (stereo not drawn) [Compound 11]
- IC50 (PC-3 cells; Homo sapiens, PC-3, 48 h, 48 h of treatment): 2070 nM
- SI [IC50(PNT2) / IC50(PC-3)] (PC-3 cells; ratio of IC50 in PNT2 cells to IC50 in PC-3 cells, 48 h): 2.40
- cleavage of caspase-9 (22Rv1 cells [1]; 2 h and 48 h treatment): observed already after 2 h
- ERK1/2 activity (22Rv1 cells [1]; 2 h treatment): suppressed
- MEK1/2 alteration (22Rv1 cells [1]; 2 h treatment): No significant alteration
- activation of Akt (22Rv1 cells [1]; 2 h treatment): slight Akt activation
- activation of p38 and JNK1/2 (22Rv1 cells [1]; 2 h treatment): pronounced activation
- AR-FL and AR-V7 expression (22Rv1 cells [1]; 48 h treatment): downregulated both, AR full length (AR-FL) and AR-V7
- Bax and Bcl-2 expression (22Rv1 cells [1]; 48 h treatment): up-regulation of Bax and down-regulation of Bcl-2
- LC3B-II and SQSTM1 levels (autophagy markers) (22Rv1 cells [1]; pre-cytotoxic and cytotoxic concentrations, 48 h): accumulation of both, LC3B-II and SQSTM1
- IC50 (RWPE-1 cells): 1480 nM
- cancer cell colony formation (22Rv1 cells [2]): suppress cancer cell colony formation
